“And” between values parts separate entries of the source, which are not always exact repeats. Identical values can stand only once. “Also recorded” adds a separate entry of the source.
Tests used:
[1] = test system: human pluripotent stem cells; assay: HD-DoE stage 1, first 12-factor experiment: gene expression (qPCR) after 3-day treatment; assay type: cell-based; details: for impact on expression of OTX2: dynamic profile / model; for factor contribution, expression of SIX3: model optimized for maximal SIX3
Description: This example utilizes a method of High-Dimensional Design of Experiments (HD-DoE), as previously described in Bukys et al. (2020) […] 23:101346. The method employs computerized design geometries to simultaneously test multiple process inputs and offers mathematical modeling of a deep effector/response space. The method allows for finding combinatorial signaling inputs that control a complex process, such as during cell differentiation. It allows testing of multiple plausible critical process parameters, as such parameters impact output responses, such as gene expression. Because gene expression provides hallmark features of the phenotype of, for example, a human cell, the method can be applied to identify, and understand, which signaling pathways control cell fate. In the current example, the HD-DOE method was applied with the intent to find conditions for induction of […] neural progenitor-expressed genes, directly from the pluripotent stem cell state. To develop the recipe for each stage, the impact of agonists and antagonists of multiple signaling pathways (herein called effectors) on the expression of two sets of 53 pre-selected genes, after a 3-day treatment, has been tested and modeled. These effectors are small molecules or proteins that are commonly used during stepwise differentiation of stem cells to specific fates. Choice of the effectors were based on current literature on neural induction in forebrain region of developing brain and differentiation of stem cells to neural progenitors. To test the effectors, experiments with at least 8 factors were designed that can assess the response of cells to 48 or more different combinations of effectors in a range of concentrations. To analyze the models, we focused on expression of genes involved in development and patterning of the anterior neuroectoderm and forebrain including OTX2 (Hoch et al. (2015) Cell Reports 12:482-494), SIX3 (Lagutin et al. (2003) Genes & Development 17:368-379) and FEZF2 (Zhang et al. (2014) Development 141:4794-[…]). At later stages we focused on dorsoventral patterning of telencephalon and gene expressed in ventral forebrain including NKX2-1 and absence of PAX6 which is a dorsal forebrain marker (Stoykova et al. (2000) J. Neurosci. 20:8042-8050). The impact of each effector on gene expression level is defined by a parameter called factor contribution that is calculated for each effector during the modeling. To identify the recipe for stage 1 of differentiation, 96 different combinations of effectors generated using Design-of-Experiments compression through D-optimality were robotically prepared. The effector combinations were prepared in a basal media and were subsequently added to the cells, which were then allowed to differentiate. Three days later RNA extraction was performed, and gene expression was obtained using quantitative PCR analysis. The data were normalized and modeled using partial least squares regression analysis to the effector design, resulting in the generation of gene-specific models, which after model tuning for maximal Q2 predictive power, provided explanation of the effectors ability to control the expression of individual genes, combinatorically, and individually. Solutions within the tested space could then be explored to address desirability. Optimizing for maximal expression of SIX3 at 3300 and FEZF2 1355 expression values led to robust solutions. This model was derived from testing 12 effectors including AGN193109, LDN193189, CHIR99021, XAV939, IGF2, Purmorphamine, 4-oxo-RA, TTNPB, SR11237, FGF8, PD0325901 and […]. […] The model was also optimized for maximum expression of FEZF2 separately at 3576 expression value to find any additional factors that can boost expression of forebrain genes. […] To find the set of factors that have the potential to optimize all 3 genes in this experiment, a new assessment was done through dynamic profile analysis with focus on maximal expression of OTX2, FEZF2 and SIX3.

[2] = test system: forebrain-committed neural stem cells; assay: HD-DoE stage 2, 12-factor experiment: NKX2-1 expression; assay type: cell-based, human; details: model / dynamic profile, in words
Method: To further guide the differentiation of forebrain-committed neural stem cells to ventral forebrain neural stem cells at stage 2, a HD-DoE experiment was performed for 3 days after termination of stage 1 treatment. […] This 12-factor experiment included LDN193189, BMP7, PD0325901, MK2206, A8301, XAV939, CHIR99021, Purmorphamine, SANT-1, AGN193109, TTNPB and GSI-XX. […]

[3] = test system: human pluripotent stem cells; assay: Factor criticality analysis, stage 1 recipe (dynamic profile analysis); assay type: cell-based; details: other five stage 1 factors present, FIG. 11
Description: To assess the impact of the elimination of each validated factor, dynamic profile analysis was used and compared the expression level of genes of interest in absence of each finalized factor while others are present. […] When Purmorphamine was removed, levels of FEZF2 and SIX3 were decreased to 1000 and below 3000, while levels of OTX2 increased to 6500.

[4] = test system: human pluripotent stem cells; assay: HD-DoE stage 1, additional experiment: FEZF2 expression; assay type: cell-based
Method: To identify the recipe for stage 1 of differentiation, 96 different combinations of effectors generated using Design-of-Experiments compression through D-optimality were robotically prepared. The effector combinations were prepared in a basal media and were subsequently added to the cells, which were then allowed to differentiate. Three days later RNA extraction was performed, and gene expression was obtained using quantitative PCR analysis. The data were normalized and modeled using partial least squares regression analysis to the effector design, resulting in the generation of gene-specific models, which after model tuning for maximal Q2 predictive power, provided explanation of the effectors ability to control the expression of individual genes, combinatorically, and individually. Solutions within the tested space could then be explored to address desirability. To further enhance the conditions for forebrain differentiation from pluripotency, an additional HD-DoE experiment was performed. Additional gene regulatory models were obtained that were used for preparation of the differentiation protocol. The factors in this experiment included LDN193189, PD173074, BLU9931, Purmorphamine, SC79, MK2206, ZM336372, PD0325901, CHIR99021, XAV939, UCLA-GP130, Tofacitinib and GO6983. […] Dynamic profile analysis was also used to assess the interaction between the effectors.

[5] = test system: forebrain-committed neural stem cells; assay: Factor criticality analysis, stage 2 recipe; assay type: cell-based, human; details: other three stage 2 factors present
Method: To assess the impact of the elimination of each validated factor, dynamic profile analysis was used and compared the expression level of genes of interest in absence of each finalized factor while others are present.
In the stage 2 recipe, each of the four finalized factors were removed while the other three factors remained present and expression levels of NKX2-1, PAX6 and NKX2-2 were assessed compared to presence of all four factors. Absence of PD0325901 reduced the levels of NKX2-1 and NKX2-2 while increasing PAX6 from 5000 to 3200, 100 to 0 and 0 to 5000, respectively. […] Removing XAV939 reduced the levels of NKX2-1 from 5000 to 3000, while increasing both PAX6 and NKX2-2 to 10000 and 200, respectively. Another observation was the interaction between XAV939 and Purmorphamine. In the absence of XAV939, the impact of Purmorphamine on NKX2-1 became negative and, as it is shown in interaction plot of FIG. 14, the level of NKX2-1 is higher when both factors are present.

Row | Compound | factor contribution, important input for high expression of SIX3 ([1]; FIG. 2 legend) | impact on expression of OTX2 ([1]; in words) | impact on expression of SIX3 ([1]; dynamic profile analysis, in words) | factor contribution, expression of SIX3 ([1]; negative effect) | factor contribution, expression of OTX2 ([1]; negative impact, model optimized for maximum OTX2) | factor contribution, expression of FEZF2 ([1]; positive impact, model optimized for maximum FEZF2 at 3576) | impact on expression of NKX2-1 [2] | expression level of FEZF2 when the factor is removed ([3]; 2000 with all six factors) | expression level of SIX3 when the factor is removed ([3]; 3000 with all six factors) | expression level of OTX2 when the factor is removed ([3]; 5500 with all six factors) | impact on expression of FEZF2 ([4]; dynamic profile, in words) | factor contribution, expression of FEZF2 ([4]; positive impact, additional stage 1 experiment optimized for FEZF2) | expression level of PAX6 when the factor is removed ([5]; 0 with all four factors) | expression level of NKX2-2 when the factor is removed ([5]; 100 with all four factors) | expression level of NKX2-1 when the factor is removed ([5]; 5000 with all four factors) | factor contribution, expression of SIX3 ([1]; positive impact, 3-day treatment, qPCR)
1 | C/C(=C\c1ccc(C(=O)O)cc1)c1ccc2c(c1)C(C)(C)CCC2(C)C [TTNPB] | 23.7 | negative impact | negative impact | 21 | 29 and 28.8 | 24 | negative impact | – | – | – | – | – | – | – | – | –
2 | Oc1nc(-c2ccc(C(F)(F)F)cc2)nc2c1CSCC2 [XAV939] | – | positive impact | – | – | – | – | increase; also recorded: Positive impact | 1700 | 1000 | 5000 | positive impact | 12 | 10000 | 200 | 3000 | 5

— patent publication US20250092360A1, “METHODS AND COMPOSITIONS FOR GENERATING SOMATOSTATIN+ INTERNEURONS FROM HUMAN FOREBRAIN NEURAL PROGENITOR CELLS” (Trailhead Biosystems Inc., priority 2023, published 2025)
